Data set [1] in a line: H+/Na+ transport assay of bead-derived peptides (one-point).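 Further: relative to parent gramicidin A activity set to 1.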 It counts as biochemical. Set-up: key: relative activity; mean of two control wells = 1.00. As to conditions: bead-derived peptide solution, EYPC/EYPG LUVs. In a few lines: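 Pyranine (1.0 mM)-loaded LUVs containing egg yolk phosphatidylglycerol were prepared by film hydration, sonication and extrusion, then mixed with diluted bead-derived peptide in 96-well format and vortexed 30 min at room temperature. Fluorescence was normalized between untreated LUVs (0%) and Triton X-100 lysis (100%).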

Data set [2] relates to P388 mouse leukemia cells. As to conditions: 92 h. In a few lines:
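First, library peptide stocks are diluted 250-fold in RPMI1640 with 10% heat-inactivated FBS. Next, they are mixed with P388 cells to give 1 × 10^4 cells/mL and incubated 92 h at 37 °C, 5% CO2. Finally, viability (%) is scored by WST-1 absorbance at 415 nm.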

Data set [3] deals with Streptococcus pyogenes SSI-9. Description: Antibacterial activity assay of bead-derived peptides (three concentrations). It counts as cell-based. As to conditions: S. pyogenes, bead-derived peptide solution, three concentrations. Further details: key: +++: inhibition by the 640-fold diluted peptide solution; ++: inhibition by the 160-fold diluted solution; +: inhibition by the 40-fold diluted solution; -: no inhibition. The method, boiled down:
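Three stock dilutions per peptide (none, 4-fold, 16-fold in DMSO) are screened in 96-well format. The medium is blood-supplemented cation-adjusted MHB, inoculated with 2 × 10^5 CFU S. pyogenes SSI-9. Growth is read as cell precipitation at 18 h, 37 °C.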

The values that follow come from PMC7531004, “Discovery of gramicidin A analogues with altered activities by multidimensional screening of a one-bead-one-compound library” (Nature Communications, 2020).

Where a SMILES comes first, the peptide text is derived from it. [ ]: non-standard residue; d: D form. The star is where a group is joined. NHCH2CH2OH = OCCN*; For = O=C*

In the case of `CNC(=O)C[C@@H](NC(=O)[C@@H](NC(=O)[C@H](NC(=O)[C@H](C)NC(=O)[C@@H](CC(C)C)NC(=O)[C@H](C)NC(=O)CNC(=O)[C@@H](NC=O)C(C)C)C(C)C)C(C)C)C(=O)N[C@@H](Cc1c[nH]c2ccccc12)C(=O)N[C@H](CC(C)C)C(=O)N[C@@H](Cc1c[nH]c2ccccc12)C(=O)N[C@H](CC(C)C)C(=O)N[C@@H](Cc1c[nH]c2ccccc12)C(=O)N[C@H](CC(C)C)C(=O)N[C@@H](Cc1c[nH]c2ccccc12)C(=O)NCCO` [compound 9336] (For-VGA[dL]A[dV]V[dD](NHMe)W[dL]W[dL]W[dL]W-NHCH2CH2OH), the “H+/Na+ transport activity normalized against the value of 1 (1.00)” value (“H+/Na+ transport activity normalized” for short) in data set [1] was 1.18. Moreover, the cell viability/% in data set [2] was 100.0%. The antibacterial activity result in data set [3] was “-”.
Consider `CC(C)C[C@@H](NC(=O)[C@H](Cc1c[nH]c2ccccc12)NC(=O)[C@H](NC(=O)[C@@H](NC(=O)[C@H](NC(=O)[C@H](C)NC(=O)[C@H](NC(=O)[C@H](C)NC(=O)CNC(=O)[C@@H](NC=O)C(C)C)C(C)C)C(C)C)C(C)C)C(C)C)C(=O)N[C@@H](Cc1c[nH]c2ccccc12)C(=O)N[C@@H](C(=O)N[C@@H](Cc1c[nH]c2ccccc12)C(=O)N[C@@H](C(=O)N[C@@H](Cc1c[nH]c2ccccc12)C(=O)NCCO)C(C)C)C(C)C` [compound 4830] (For-VGA[dV]A[dV]V[dV]W[dL]W[dV]W[dV]W-NHCH2CH2OH), for which, in data set [1], the “H+/Na+ transport activity normalized” value stood at 1.18. In data set [2], the cell viability/% amounted to 89.5%. Besides, the antibacterial activity entry in data set [3] is “++”.
The corresponding values for `CNC(=O)C[C@@H](NC(=O)[C@@H](NC(=O)[C@@H](CC(C)C)NC(=O)[C@H](C)NC(=O)[C@H](NC(=O)[C@H](C)NC(=O)CNC(=O)[C@@H](NC=O)C(C)C)C(C)C)C(C)C)C(=O)N[C@@H](Cc1c[nH]c2ccccc12)C(=O)N[C@@H](C(=O)N[C@@H](Cc1c[nH]c2ccccc12)C(=O)N[C@@H](C(=O)N[C@@H](Cc1c[nH]c2ccccc12)C(=O)N[C@@H](C(=O)N[C@@H](Cc1c[nH]c2ccccc12)C(=O)NCCO)C(C)C)C(C)C)C(C)C` [compound 12576] (For-VGA[dV]A[dL]V[dD](NHMe)W[dV]W[dV]W[dV]W-NHCH2CH2OH) are 1.09, 100.0% and “-”.
The corresponding values for `CNC(=O)C[C@@H](NC(=O)[C@@H](NC(=O)[C@@H](CC(C)C)NC(=O)[C@H](C)NC(=O)[C@@H](CC(C)C)NC(=O)[C@H](C)NC(=O)CNC(=O)[C@@H](NC=O)C(C)C)C(C)C)C(=O)N[C@@H](Cc1c[nH]c2ccccc12)C(=O)N[C@H](CC(C)C)C(=O)N[C@@H](Cc1c[nH]c2ccccc12)C(=O)N[C@H](CC(C)C)C(=O)N[C@@H](Cc1c[nH]c2ccccc12)C(=O)N[C@@H](C(=O)N[C@@H](Cc1c[nH]c2ccccc12)C(=O)NCCO)[C@H](C)O` [compound 638] (For-VGA[dL]A[dL]V[dD](NHMe)W[dL]W[dL]W[dT]W-NHCH2CH2OH) are 1.01, 100.0% and “-”.
As for `CNC(=O)C[C@@H](NC(=O)[C@@H](NC(=O)[C@@H](CC(C)C)NC(=O)[C@H](C)NC(=O)[C@@H](CC(C)C)NC(=O)[C@H](C)NC(=O)CNC(=O)[C@@H](NC=O)C(C)C)C(C)C)C(=O)N[C@@H](Cc1c[nH]c2ccccc12)C(=O)N[C@@H](C(=O)N[C@@H](Cc1c[nH]c2ccccc12)C(=O)N[C@@H](C(=O)N[C@@H](Cc1c[nH]c2ccccc12)C(=O)N[C@H](CC(C)C)C(=O)N[C@@H](Cc1c[nH]c2ccccc12)C(=O)NCCO)C(C)C)C(C)C` [compound 12307] (For-VGA[dL]A[dL]V[dD](NHMe)W[dV]W[dV]W[dL]W-NHCH2CH2OH), the “H+/Na+ transport activity normalized” value in data set [1] is 1.32. Besides, the cell viability/% in data set [2] is 100.0%. In data set [3], the antibacterial activity result is given as “-”.
Consider `CC(C)C[C@@H](NC(=O)[C@H](Cc1c[nH]c2ccccc12)NC(=O)[C@H](NC(=O)[C@H](Cc1c[nH]c2ccccc12)NC(=O)[C@@H](CC(C)C)NC(=O)[C@H](Cc1c[nH]c2ccccc12)NC(=O)[C@@H](CC(C)C)NC(=O)[C@@H](NC(=O)[C@H](NC(=O)[C@H](C)NC(=O)[C@H](NC(=O)[C@H](C)NC(=O)CNC(=O)[C@@H](NC=O)C(C)C)C(C)C)C(C)C)C(C)C)[C@H](C)O)C(=O)N[C@@H](Cc1c[nH]c2ccccc12)C(=O)NCCO` [compound 10516] (For-VGA[dV]A[dV]V[dL]W[dL]W[dT]W[dL]W-NHCH2CH2OH), for which the “H+/Na+ transport activity normalized” value in data set [1] is listed as 1.10. In addition, the cell viability/% in data set [2] is recorded as 100.0%. Besides, in data set [3], the antibacterial activity entry is listed as “-”.
`CC(C)C[C@@H](NC(=O)[C@H](C)NC(=O)CNC(=O)[C@@H](NC=O)C(C)C)C(=O)N[C@@H](C)C(=O)N[C@@H](C(=O)N[C@H](C(=O)N[C@H](CC(C)C)C(=O)N[C@@H](Cc1c[nH]c2ccccc12)C(=O)N[C@H](CC(C)C)C(=O)N[C@@H](Cc1c[nH]c2ccccc12)C(=O)N[C@@H](C(=O)N[C@@H](Cc1c[nH]c2ccccc12)C(=O)N[C@H](CC(C)C)C(=O)N[C@@H](Cc1c[nH]c2ccccc12)C(=O)NCCO)C(C)C)C(C)C)C(C)C` [compound 13252] (For-VGA[dL]A[dV]V[dL]W[dL]W[dV]W[dL]W-NHCH2CH2OH): the “H+/Na+ transport activity normalized” value in data set [1] is 1.14. The cell viability/% in data set [2] was determined as 2.6%. For the same compound, the antibacterial activity result in data set [3] is “-”.
For the compound `CC(C)C[C@@H](NC(=O)[C@H](Cc1c[nH]c2ccccc12)NC(=O)[C@H](NC(=O)[C@H](Cc1c[nH]c2ccccc12)NC(=O)[C@H](NC(=O)[C@@H](NC(=O)[C@H](NC(=O)[C@H](C)NC(=O)[C@H](NC(=O)[C@H](C)NC(=O)CNC(=O)[C@@H](NC=O)C(C)C)C(C)C)C(C)C)C(C)C)C(C)C)C(C)C)C(=O)N[C@@H](Cc1c[nH]c2ccccc12)C(=O)N[C@@H](C(=O)N[C@@H](Cc1c[nH]c2ccccc12)C(=O)NCCO)C(C)C` [compound 5678] (For-VGA[dV]A[dV]V[dV]W[dV]W[dL]W[dV]W-NHCH2CH2OH), the “H+/Na+ transport activity normalized” value in data set [1] came to 1.11. In addition, the cell viability/% in data set [2] came to 93.2%. Moreover, the antibacterial activity result in data set [3] is on record as “++”.
In the case of `CC(C)C[C@@H](NC(=O)[C@H](C)NC(=O)CNC(=O)[C@@H](NC=O)C(C)C)C(=O)N[C@@H](C)C(=O)N[C@H](CC(C)C)C(=O)N[C@H](C(=O)N[C@H](CC(C)C)C(=O)N[C@@H](Cc1c[nH]c2ccccc12)C(=O)N[C@@H](C(=O)N[C@@H](Cc1c[nH]c2ccccc12)C(=O)N[C@H](CC(C)C)C(=O)N[C@@H](Cc1c[nH]c2ccccc12)C(=O)N[C@H](CC(C)C)C(=O)N[C@@H](Cc1c[nH]c2ccccc12)C(=O)NCCO)[C@H](C)O)C(C)C` [compound 7211] (For-VGA[dL]A[dL]V[dL]W[dT]W[dL]W[dL]W-NHCH2CH2OH), the “H+/Na+ transport activity normalized” value in data set [1] is recorded as 1.03. Besides, the cell viability/% in data set [2] is recorded as 100.0%. Also, in data set [3], the antibacterial activity result was “-”.
Taken in the same sequence, the figures for `CC(C)[C@H](NC=O)C(=O)NCC(=O)N[C@@H](C)C(=O)N[C@@H](C(=O)N[C@@H](C)C(=O)N[C@@H](C(=O)N[C@H](C(=O)N[C@@H](C(=O)N[C@@H](Cc1c[nH]c2ccccc12)C(=O)N[C@@H](C(=O)N[C@@H](Cc1c[nH]c2ccccc12)C(=O)N[C@@H](C(=O)N[C@@H](Cc1c[nH]c2ccccc12)C(=O)N[C@@H](C(=O)N[C@@H](Cc1c[nH]c2ccccc12)C(=O)NCCO)C(C)C)C(C)C)[C@H](C)O)C(C)C)C(C)C)C(C)C)C(C)C` [compound 5205] (For-VGA[dV]A[dV]V[dV]W[dT]W[dV]W[dV]W-NHCH2CH2OH) were 1.22, 100.0% and “-”.
The corresponding values for `CC(C)C[C@@H](NC(=O)[C@H](Cc1c[nH]c2ccccc12)NC(=O)[C@@H](CC(C)C)NC(=O)[C@H](Cc1c[nH]c2ccccc12)NC(=O)[C@H](NC(=O)[C@H](Cc1c[nH]c2ccccc12)NC(=O)[C@@H](CC(C)C)NC(=O)[C@@H](NC(=O)[C@H](NC(=O)[C@H](C)NC(=O)[C@H](NC(=O)[C@H](C)NC(=O)CNC(=O)[C@@H](NC=O)C(C)C)C(C)C)C(C)C)C(C)C)C(C)C)C(=O)N[C@@H](Cc1c[nH]c2ccccc12)C(=O)NCCO` [compound 11146] (For-VGA[dV]A[dV]V[dL]W[dV]W[dL]W[dL]W-NHCH2CH2OH) are 1.08, 100.0% and “+”.
In the case of `CC(C)C[C@@H](NC(=O)[C@H](Cc1c[nH]c2ccccc12)NC(=O)[C@H](NC(=O)[C@H](Cc1c[nH]c2ccccc12)NC(=O)[C@H](NC(=O)[C@H](Cc1c[nH]c2ccccc12)NC(=O)[C@H](NC(=O)[C@@H](NC(=O)[C@H](NC(=O)[C@H](C)NC(=O)[C@H](NC(=O)[C@H](C)NC(=O)CNC(=O)[C@@H](NC=O)C(C)C)C(C)C)[C@H](C)O)C(C)C)C(C)C)C(C)C)C(C)C)C(=O)N[C@@H](Cc1c[nH]c2ccccc12)C(=O)NCCO` [compound 9058] (For-VGA[dV]A[dT]V[dV]W[dV]W[dV]W[dL]W-NHCH2CH2OH), in data set [1], the “H+/Na+ transport activity normalized” value is reported as 1.14. Besides, the cell viability/% in data set [2] amounted to 58.0%. In data set [3], the antibacterial activity entry is listed as “-”.
